Where no end group is shown, it is not given here.
T1: MMP-2 (Homo sapiens, UniProt P08253)
T1 sequence (P08253 110-660): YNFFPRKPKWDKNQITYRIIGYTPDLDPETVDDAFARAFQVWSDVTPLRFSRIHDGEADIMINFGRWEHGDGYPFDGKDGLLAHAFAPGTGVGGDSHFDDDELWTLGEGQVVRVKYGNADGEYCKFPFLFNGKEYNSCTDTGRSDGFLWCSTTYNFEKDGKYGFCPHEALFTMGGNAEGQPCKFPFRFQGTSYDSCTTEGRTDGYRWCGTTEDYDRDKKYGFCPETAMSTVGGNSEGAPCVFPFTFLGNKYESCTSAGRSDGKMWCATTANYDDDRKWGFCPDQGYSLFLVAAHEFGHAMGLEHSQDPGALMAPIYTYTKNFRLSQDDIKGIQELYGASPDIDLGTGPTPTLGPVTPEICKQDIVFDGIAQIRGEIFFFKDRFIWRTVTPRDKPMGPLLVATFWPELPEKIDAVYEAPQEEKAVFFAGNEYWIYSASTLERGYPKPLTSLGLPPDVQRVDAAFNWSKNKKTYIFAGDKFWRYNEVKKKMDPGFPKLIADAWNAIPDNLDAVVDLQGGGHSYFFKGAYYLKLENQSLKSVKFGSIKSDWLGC


How the values were obtained:
articular cartilage = test: Competitive binding of free polypeptide or nanoparticles against phage clone C1-3 on articular cartilage; set-up: species or system bovine; details: for decrease of phage titers versus control without polypeptide: 10 μM polypeptide, FIG. 3
Procedure: Cartilage grafts were harvested with 8 and 4 mm biopsy cutters (two-sided surface 1 cm^2 and 0.25 cm^2). A slice with the intact articular surface was removed to expose the phages only to the cartilage matrix below the surface. Affinity selection was preformed in polystyrene 48-well plates, which were blocked for nonspecific adhesion with a blocking solution containing 1% BSA for 2 hours prior to screening. A total of 5 screening rounds was carried out. In the first round 10^13 and in subsequent rounds 10^12 phage virions per ml were exposed to the cartilage graft, washed with PBS/Tween 20 and eluted at low pH. While the first round was supposed to give a high yield at low stringency, subsequent rounds were carried out with increasing stringency to select stronger binders. Conditions were increased from 4 hours of binding at RT and washing with PBS/0.1% Tween to 30 minutes binding at 37° C. with 220 RPM, washing with PBS/1% Tween 20 and the cartilage surface decreased from 1 cm^2 to 0.25 cm^2 in round five. Eluted phage was amplified overnight in E. coli strain TG1 in 2×YT medium and purified by two times PEG/NaCl (2M, 25%) precipitation. In the first round of screening, negative screens against the intact articular surface as well as synovial fluid (50% diluted in PBS to lower viscosity) were carried out in order to eliminate phages binding to these targets. Quantitative titer counts were obtained by spot titering of 15 μl of phage/bacterial culture onto LB-agar/tetracyclin plates and are given in transducing units(TU)/ml. The polypeptide sequences of affinity selected phage specific to the articular cartilage matrix was determined by DNA sequencing (Microsynth AG, Balgach, Switzerland) using the sequencing primer 5′-CAT GTA CCG TAA CAC TGA G (SEQ ID NO:5). Binding specificity was determined by exposing selected phage clones (10^8 TU/ml) to articular cartilage (0.25 cm^2) with and without synovial fluid, to synovial membrane (3×4 mm, 0.24 cm^2) and to polystyrene after blocking. […] The phage clones were identified by DNA sequencing and the corresponding titer counts calculated. For comepetetive binding against free polypeptide or nanoparticles and to obtain a dose-response curve, 10^8 TU/ml of phage and its free polypeptide in different concentrations or nanoparticles were mixed, exposed to articular cartilage and titer counts determined. […]
Based on affinity selection and the binding assays reported herein, the 6-mer polypeptide insert WYRGRL (SEQ ID NO:1) of clone C1-3 as well as its scrambled mismatch YRLGRW (SEQ ID NO:6) were synthesized on solid resin using standard Fmoc chemistry. […] A dose-response curve was determined by serial dilutions of the polypeptide ranging from 50 nM to 10 μM and mixing them with 10^8 TU/ml of phage. […]

MMP-2 = target: T1, MMP-2; test: MMP-2 zymography; format: biochemical

IC50 (articular cartilage; polypeptide 50 nM to 10 μM mixed with 10^8 TU/ml phage C1-3, estimated from curve in FIG. 2, read-out: IC50, inhibition of cartilage binding of phage C1-3) [nM] | decrease of titer counts of recovered phage over the dose-response curve (articular cartilage; polypeptide increased from 50 nM to 10 μM, FIG. 2) | inhibition of MMP-2 activity (MMP-2; equimolar amount of trTIMP-3) | activity of the purified protein (MMP-2; inferred from MMP-2 zymography at equimolar amount) [%] | Molecule | decrease of phage titers versus control without polypeptide (articular cartilage)
~200 | two orders of magnitude | – | – | WYRGRLC [synthetic polypeptide: insert WYRGRL of clone C1-3 with a cysteine added to the C-terminus] | ~100 fold
– | – | – | – | YRLGRWC (Ac-YRLGRWC) [scrambled mismatch polypeptide of WYRGRL with C-terminal cysteine, reference compound] | did not result in a significant decrease in phage titer
– | – | completely inhibits | ~100 | trTIMP-3: fusion protein of N-TIMP-3 (Cys24 to Asn 143) containing WYRGRL at the C-terminus (protein) CTCSPSHPQDAFCNSDIVIRAKVVGKKLVKEGPFGTLVYTIKQMKMYRGFSKMPHVQYIHTEASESLCGLKLEVNKYQYLLTGRVYEGKMYTGLCNFVERWDHLTLSQRKGLNYRYHLGCGGGWYRGRL | –

Reference: patent US7592009B2, “Polypeptide ligands for targeting cartilage and methods of use thereof” (Ecole Polytechnique Federale de Lausanne (EPFL), priority 2006, dated 2009)
